Reference: PMC5000727, “Molecular Insights into the Potential Toxicological Interaction of 2-Mercaptothiazoline with the Antioxidant Enzyme—Catalase” (International Journal of Molecular Sciences, 2016)

Target: T1, catalase (CAT), from bovine liver (Bos taurus, UniProt P00432)
T1 construct: native enzyme from bovine liver, commercial (Sigma), EC 1.11.1.6; homotetramer; PDB 1TGU printed only as docking model
T1 sequence (P00432 2-527): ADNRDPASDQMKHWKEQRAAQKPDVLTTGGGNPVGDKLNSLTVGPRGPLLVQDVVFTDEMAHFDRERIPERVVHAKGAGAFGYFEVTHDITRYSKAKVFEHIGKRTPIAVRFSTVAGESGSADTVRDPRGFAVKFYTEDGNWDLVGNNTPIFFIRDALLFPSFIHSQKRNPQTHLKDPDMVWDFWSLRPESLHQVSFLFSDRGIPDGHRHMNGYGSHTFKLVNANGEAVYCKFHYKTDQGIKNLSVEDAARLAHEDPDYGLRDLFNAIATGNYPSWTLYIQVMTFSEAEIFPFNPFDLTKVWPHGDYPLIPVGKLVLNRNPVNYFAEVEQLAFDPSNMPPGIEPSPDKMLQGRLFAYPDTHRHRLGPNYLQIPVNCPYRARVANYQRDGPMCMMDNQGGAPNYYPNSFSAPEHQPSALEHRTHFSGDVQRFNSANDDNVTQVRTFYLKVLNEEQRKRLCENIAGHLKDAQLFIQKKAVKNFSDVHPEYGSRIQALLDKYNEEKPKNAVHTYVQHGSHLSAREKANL
Experiment: intrinsic fluorescence quenching (ex […] nm)
Type: binding
Settings: double-log; pH 7.4, 291 K, phosphate buffer; n = 1.14; unit printed mol·L^−1 but must be L·mol^−1 (printed ΔG° agrees); also measured at 300, 309, 318 K

- Ka (× 10^4 mol.L^-1): 2.97 × 10^4 mol·L^−1
Structure (SMILES): S=C1NCCS1 [2-mercaptothiazoline, 1,3-thiazolidine-2-thione]
